Laboratory results: patent publication US10227344B2, “CK2 inhibitors, compositions and methods thereof” (Polaris Pharmaceuticals, Inc., priority 2016, dated 2019)
Structures can show the parent of a compound that is named as a salt.

How the values were obtained:
purified CK2α enzyme = purified CK2α enzyme (Homo sapiens, UniProt P68400); test: CK2 Protein Kinase Inhibition Assay (coupled PK/LDH assay); type: biochemical; settings: CK2 enzyme 25 nM, 100 μM ATP, 37° C., Morrison equation
How it was run: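 Purified CK2α at 25 nM final, 1.5 mM peptide substrate, 100 μM ATP, pH 8.25 Tris buffer; compounds pre-incubated 10 min at 37° C. ADP coupled via PK/LDH to NADH loss at 340 nm over 30 min, 37° C. Ki from rate versus concentration by Morrison equation, triplicate points.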

purified CK2α enzyme, sequence (P68400 whole entry): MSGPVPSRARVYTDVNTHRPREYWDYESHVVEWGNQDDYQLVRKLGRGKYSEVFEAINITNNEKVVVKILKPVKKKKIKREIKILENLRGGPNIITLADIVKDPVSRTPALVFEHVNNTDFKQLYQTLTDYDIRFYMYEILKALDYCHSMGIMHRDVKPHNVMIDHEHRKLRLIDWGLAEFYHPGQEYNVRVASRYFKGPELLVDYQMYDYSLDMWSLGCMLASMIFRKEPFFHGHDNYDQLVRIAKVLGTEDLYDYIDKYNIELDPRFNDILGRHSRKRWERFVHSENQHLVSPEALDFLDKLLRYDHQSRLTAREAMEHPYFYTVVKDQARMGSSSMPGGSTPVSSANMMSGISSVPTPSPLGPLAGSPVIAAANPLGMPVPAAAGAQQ

Row | Compound | melting point [°C] | Ki (purified CK2α enzyme) [nM]
1 | CN(CCN)c1ccc(Nc2nc(NC3CC3)n3ncc(C#N)c3n2)cc1CS(C)(=O)=O (as salt: trifluoroacetic acid salt) [Example 52, 2-((4-((2-aminoethyl)(methyl)amino)-3-((methylsulfonyl)methyl)phenyl)amino)-4-(cyclopropylamino)pyrazolo[1,5-a][1,3,5]triazine-8-carbonitrile mono trifluoroacetic acid salt] | 55 to 59 | –
2 | CN(CC1(N)CC1)c1ccc(Nc2cc(NC3CC3)n3ncc(C#N)c3n2)cc1CS(C)(=O)=O (as salt: trifluoroacetic acid salt) [Example 66, 5-((4-(((1-aminocyclopropyl)methyl)(methyl)amino)-3-((methylsulfonyl)methyl)phenyl)amino)-7-(cyclopropylamino)pyrazolo[1,5-a]pyrimidine-3-carbonitrile mono trifluoroacetic acid salt] | 185 to 189 | –
3 | CN(CCN)c1ccc(Nc2cc(NC3CC3)c3ncc(C#N)n3n2)cc1C[S+](C)[O-] (racemic) (as salt: trifluoroacetic acid salt) [Example 47, (±)-6-((4-((2-Aminoethyl)(methyl)amino)-3-((methylsulfinyl)methyl)phenyl)amino)-8-(cyclopropylamino)imidazo[1,2-b]pyridazine-3-carbonitrile mono trifluoroacetic acid salt] | 91 to 94 | –
4 | CN(CCN)c1ccc(Nc2nc(NC3CC3)c3ncc(C#N)n3n2)cc1C[S+](C)[O-] (racemic) (as salt: trifluoroacetic acid salt) [Example 49, (±)-2-((4-((2-aminoethyl)(methyl)amino)-3-((methylsulfinyl)methyl)phenyl)amino)-4-(cyclopropylamino)imidazo[2,1-f][1,2,4]triazine-7-carbonitrile mono trifluoroacetic acid salt] | 93 to 97 | –
5 | CN(CCN)c1ccc(Nc2nc(NC3CC3)n3ncc(C#N)c3n2)cc1C[S+](C)[O-] (racemic) (as salt: trifluoroacetic acid salt) [Example 51, (±)-2-((4-((2-aminoethyl)(methyl)amino)-3-((methylsulfinyl)methyl)phenyl)amino)-4-(cyclopropylamino)pyrazolo[1,5-a][1,3,5]triazine-8-carbonitrile mono trifluoroacetic acid salt] | 78 to 82 | –
6 | CC(N)c1ccc(Nc2cc(NC3CC3)n3ncc(C#N)c3n2)cc1C[S+](C)[O-] (racemic) (as salt: trifluoroacetic acid salt) [Example 58, (±)-5-((4-((R,S)-1-Aminoethyl)-3-((methylsulfinyl)methyl)phenyl)amino)-7-(cyclopropylamino)pyrazolo[1,5-a]pyrimidine-3-carbonitrile mono trifluoroacetic acid salt] | 161 to 165 | –
7 | C[S+]([O-])Cc1cc(Nc2cc(NC3CC3)n3ncc(C#N)c3n2)ccc1C1(N)CC1 (racemic) (as salt: trifluoroacetic acid salt) [Example 59, (±)-5-((4-(1-Aminocyclopropyl)-3-((methylsulfinyl)methyl)phenyl)amino)-7-(cyclopropylamino)pyrazolo[1,5-a]pyrimidine-3-carbonitrile mono trifluoroacetic acid salt] | 185 to 189 | –
8 | C/C(=C\CN)c1ccc(Nc2cc(NC3CC3)n3ncc(C#N)c3n2)cc1C[S+](C)[O-] (racemic) (as salt: trifluoroacetic acid salt) [Example 60, (±)-(E)-5-((4-(4-aminobut-2-en-2-yl)-3-((methylsulfinyl)methyl)phenyl)amino)-7-(cyclopropylamino)pyrazolo[1,5-a]pyrimidine-3-carbonitrile mono trifluoroacetic acid salt] | 249 to 253 | –
9 | C[S+]([O-])Cc1cc(Nc2cc(NC3CC3)n3ncc(C#N)c3n2)ccc1C1CCCNC1 (racemic) (as salt: trifluoroacetic acid salt) [Example 61, (±)-7-(Cyclopropylamino)-5-((3-((methylsulfinyl)methyl)-4-((R,S)-piperidin-3-yl)phenyl)amino)pyrazolo[1,5-a]pyrimidine-3-carbonitrile mono trifluoroacetic acid salt] | 55 to 59 | –
10 | C[S+]([O-])Cc1cc(Nc2cc(NC3CC3)n3ncc(C#N)c3n2)ccc1C1=CCNC1 (racemic) (as salt: trifluoroacetic acid salt) [Example 62, (±)-7-(Cyclopropylamino)-5-((4-(2,5-dihydro-1H-pyrrol-3-yl)-3-((methylsulfinyl)methyl)phenyl)amino)pyrazolo[1,5-a]pyrimidine-3-carbonitrile mono trifluoroacetic acid salt] | 147 to 151 | –
11 | C[S+]([O-])Cc1cc(Nc2cc(NC3CC3)n3ncc(C#N)c3n2)ccc1C1CCNC1 (racemic) (as salt: trifluoroacetic acid salt) [Example 63, (±)-7-(Cyclopropylamino)-5-((3-((methylsulfinyl)methyl)-4-((R,S)-pyrrolidin-3-yl)phenyl)amino)pyrazolo[1,5-a]pyrimidine-3-carbonitrile mono trifluoroacetic acid salt] | 173 to 177 | –
12 | CC(CCN)c1ccc(Nc2cc(NC3CC3)n3ncc(C#N)c3n2)cc1C[S+](C)[O-] (racemic) (as salt: trifluoroacetic acid salt) [Example 64, (±)-5-((4-(R,S)-4-Aminobutan-2-yl)-3-((methylsulfinyl)methyl)phenyl)amino)-7-(cyclopropylamino)pyrazolo[1,5-a]pyrimidine-3-carbonitrile mono trifluoroacetic acid salt] | 119 to 123 | –
13 | CN(CC1(N)CC1)c1ccc(Nc2cc(NC3CC3)n3ncc(C#N)c3n2)cc1C[S+](C)[O-] (racemic) (as salt: trifluoroacetic acid salt) [Example 65, (±)-5-((4-(((1-Aminocyclopropyl)methyl)(methyl)amino)-3-((methylsulfinyl)methyl)phenyl)amino)-7-(cyclopropylamino)pyrazolo[1,5-a]pyrimidine-3-carbonitrile mono trifluoroacetic acid salt] | 126 to 130 | –
14 | CN(CC(C)(C)N)c1ccc(Nc2cc(NC3CC3)n3ncc(C#N)c3n2)cc1C[S+](C)[O-] (racemic) (as salt: trifluoroacetic acid salt) [Example 67, (±)-5-((4-((2-Amino-2-methylpropyl)(methyl)amino)-3-((methylsulfinyl)methyl)phenyl)amino)-7-(cyclopropylamino)pyrazolo[1,5-a]pyrimidine-3-carbonitrile mono trifluoroacetic acid salt] | 141 to 145 | –
15 | COc1ccc(Nc2cc(NC3CC3)n3ncc(C#N)c3n2)cc1C[S+](C)[O-] (racemic) [Example 17, (±)-7-(Cyclopropylamino)-5-((4-methoxy-3-((methylsulfinyl)methyl)phenyl)amino)pyrazolo[1,5-a]pyrimidine-3-carbonitrile] | 227 to 229 | < 2.5
16 | C[S+]([O-])Cc1cc(Nc2cc(NC3CC3)n3ncc(C#N)c3n2)ccc1OC(F)F (racemic) [Example 19, (±)-7-(Cyclopropylamino)-5-((4-(difluoromethoxy)-3-((methylsulfinyl)methyl)phenyl)amino)pyrazolo[1,5-a]pyrimidine-3-carbonitrile] | 233 to 235 | < 2.5
17 | C[S+]([O-])Cc1cc(Nc2cc(NC3CC3)n3ncc(C#N)c3n2)ccc1OCCN (racemic) [Example 31, (±)-5-((4-(2-aminoethoxy)-3-((methylsulfinyl)methyl)phenyl)amino)-7-(cyclopropylamino)pyrazolo[1,5-a]pyrimidine-3-carbonitrile] | 206 to 208 | < 2.5
18 | CN(C)c1ccc(Nc2cc(NC3CC3)n3ncc(C#N)c3n2)cc1C[S+](C)[O-] (racemic) [Example 33, (±)-7-(Cyclopropylamino)-5-((4-(dimethylamino)-3-((methylsulfinyl)methyl)phenyl)amino)pyrazolo[1,5-a]pyrimidine-3-carbonitrile] | 229 to 233 | < 2.5
19 | C[S+]([O-])Cc1cc(Nc2cc(NC3CC3)n3ncc(C#N)c3n2)ccc1N1CCC1 (racemic) [Example 37, (±)-5-((4-(Azetidin-1-yl)-3-((methylsulfinyl)methyl)phenyl)amino)-7-(cyclopropylamino)pyrazolo[1,5-a]pyrimidine-3-carbonitrile] | 204 to 207 | < 2.5
20 | C[S+]([O-])Cc1cc(Nc2cc(NC3CC3)n3ncc(C#N)c3n2)ccc1C1=CCCNC1.O=C(O)C(F)(F)F (racemic) [Example 53, (±)-7-(cyclopropylamino)-5-((3-((methylsulfinyl)methyl)-4-(1,2,5,6-tetrahydropyridin-3-yl)phenyl)amino)pyrazolo[1,5-a]pyrimidine-3-carbonitrile mono trifluoroacetic acid salt] | 126 to 130 | 2.5 to 10
21 | COc1ccc(Nc2cc(NC3CC3)n3ncc(C#N)c3n2)cc1CS(C)(=O)=O [Example 18, 7-(Cyclopropylamino)-5-((4-methoxy-3-((methylsulfonyl)methyl)phenyl)amino)pyrazolo[1,5-a]pyrimidine-3-carbonitrile] | 233 to 235 | < 2.5
22 | CS(=O)(=O)Cc1cc(Nc2cc(NC3CC3)n3ncc(C#N)c3n2)ccc1OC(F)F [Example 20, 7-(Cyclopropylamino)-5-((4-(difluoromethoxy)-3-((methylsulfonyl)methyl)phenyl)amino)pyrazolo[1,5-a]pyrimidine-3-carbonitrile] | > 260 | < 2.5
